Results published in patent US20190119282A1, “IMIDAZOPYRIDAZINES USEFUL AS INHIBITORS OF THE PAR-2 SIGNALING PATHWAY” (Vertex Pharmaceuticals Incorporated, priority 2013, published 2019).

Experiments:
[1] = test system: Thrombin-stimulated Ca2+ response in HT-29 cells; experiment: Ca FLIPR TETRA assay, ANTAGONIST mode, stimulation with 1 U/mL Thrombin; type: cell-based, human; details: for IC50: Homo sapiens, HT-29 cells, stimulation with 1 U/mL Thrombin
Protocol: (§1) Example 60: Protocol for Testing PAR2 Compounds in ANTAGONIST Mode Using the Ca FLIPR^TETRA Assay (384 Well)
(§2) 23000 HT-29 cells (ATCC# HTB-38) were plated in 384-well black, transparent-flat bottom plates and incubated in 25 uL of 1% FBS/McCoy's media ON at 37° C. under an atmosphere of 5% CO2. The following day, 25 uL FLIPR calcium 5 Molecular Devices assay reagent (Cat: R-8186) was added. Plates were incubated at 37° C. and r. t. for 45 min and 15 min, respectively. Compounds dilutions were prepared in 100% DMSO using a Biomek FX and diluted 20-fold in HBSS and then 5.5 uL was added directly to the cells by the FLIPR^TETRA (10× dilution) using FLIPR Tetra Pipette tips, black, non-sterile, 384 Molecular Devices (Cat: 9000-0764).
(§3) A first read was performed to determine whether the test compounds on their own can activate Ca2+ responses.
(§4) The cells were incubated with the compounds for 30 min at r. t. and then read in ANTAGONIST mode in the same plate by stimulating with 6.2 uL of a fixed concentration of the activator: final concentrations: 8 μM SLIGKV, 1 U/mL Thrombin, 3.1 U/mL trypsin, or 0.6 μM UTP.

[2] = target: T1, PAR2 (HT-29 cells, SLIGKV activation) (Homo sapiens, UniProt P55085); experiment: Ca FLIPR TETRA assay, ANTAGONIST mode, stimulation with 8 μM SLIGKV; type: cell-based; details: HT-29 cells, stimulation with 8 μM SLIGKV
T1 construct: host or cells: HT-29 cells
T1 sequence (P55085 26-397): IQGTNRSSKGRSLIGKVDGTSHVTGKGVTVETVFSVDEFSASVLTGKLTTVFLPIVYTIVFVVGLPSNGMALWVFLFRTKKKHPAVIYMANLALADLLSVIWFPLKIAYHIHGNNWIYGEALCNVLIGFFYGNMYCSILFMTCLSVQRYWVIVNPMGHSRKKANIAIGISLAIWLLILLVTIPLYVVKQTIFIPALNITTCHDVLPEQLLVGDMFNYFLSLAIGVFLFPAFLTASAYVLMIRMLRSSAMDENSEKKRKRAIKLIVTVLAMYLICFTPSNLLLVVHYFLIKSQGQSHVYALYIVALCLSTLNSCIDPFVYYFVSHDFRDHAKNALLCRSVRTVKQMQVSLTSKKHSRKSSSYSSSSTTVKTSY
Protocol: as §1, §2, §3, §4

[3] = test system: UTP-stimulated Ca2+ response in HT-29 cells; experiment: Ca FLIPR TETRA assay, ANTAGONIST mode, stimulation with 0.6 μM UTP; type: cell-based, human; details: Homo sapiens, HT-29 cells, stimulation with 0.6 μM UTP
Protocol: as §1, §2, §3, §4

[4] = target: T2, PAR2 (HT-29 cells, trypsin activation) (Homo sapiens, UniProt P55085); experiment: Ca FLIPR TETRA assay, ANTAGONIST mode, stimulation with 3.1 U/mL trypsin; type: cell-based; details: HT-29 cells, stimulation with 3.1 U/mL trypsin
T2 construct: host or cells: HT-29 cells
T2 sequence (P55085 26-397): T1 sequence (P55085 26-397)
Protocol: as §1, §2, §3, §4

| SMILES | IC50 [1] [nM] | IC50 [2] [nM] | IC50 [3] [nM] | IC50 [4] [nM] | IC50 ([1]; antagonist mode) [nM] | IC50 ([2]; antagonist mode) [nM] | IC50 ([3]; antagonist mode) [nM] | Thrombin % @ concentration ([1]; @ 50 (μM)) [% @ 50] |
| --- | --- | --- | --- | --- | --- | --- | --- | --- |
| C[C@H]1CN(C(=O)c2cn3nc(-c4ccc(F)cc4)cc(C(F)(F)F)c3n2)CCN1C(=O)OC(C)(C)C [Compound I-1, tert-Butyl (2S)-4-[6-(4-fluorophenyl)-8-(trifluoromethyl)imidazo[1,2-b]pyridazine-2-carbonyl]-2-methyl-piperazine-1-carboxylate] | 3600 | 280 | 3100 | 1000 |  |  |  |  |
| CCc1cc(-c2ccc(F)cc2)nn2cc(C(=O)N3CCN(C(=O)OC(C)(C)C)[C@@H](C)C3)nc12 [Compound I-3, tert-Butyl (2S)-4-[8-ethyl-6-(4-fluorophenyl)imidazo[1,2-b]pyridazine-2-carbonyl]-2-methyl-piperazine-1-carboxylate] | 18000 | 160 | 16000 | 825 |  |  |  |  |
| CCc1cc(-c2ccc(F)cc2)nn2cc(C(=O)N3CCN(C(=O)OC(C)(C)C)CC3(C)C)nc12 [Compound I-4, tert-Butyl 4-[8-ethyl-6-(4-fluorophenyl)imidazo[1,2-b]pyridazine-2-carbonyl]-3,3-dimethyl-piperazine-1-carboxylate] | 12000 | 3 | 17000 | 16 |  |  |  |  |
| Cc1cc(-c2ccc(F)cc2)nn2cc(C(=O)N3CCN(C(=O)OCc4ccccc4)[C@@H](C)C3)nc12 [Compound I-8, (S)-Benzyl 4-(6-(4-fluorophenyl)-8-methylimidazo[1,2-b]pyridazine-2-carbonyl)-2-methylpiperazine-1-carboxylate] | 43000 | 180 | 31000 | 690 |  |  |  |  |
| C[C@H]1CN(C(=O)c2cn3nc(-c4ccc(F)cc4)cc(C(F)(F)F)c3n2)CCN1C(=O)OCc1ccccn1 [Compound I-11, 2-Pyridylmethyl (2S)-4-[6-(4-fluorophenyl)-8-(trifluoromethyl)-imidazo-[1,2-b]pyridazine-2-carbonyl]-2-methyl-piperazine-1-carboxylate] | 9600 | 65 | > 5000 | 300 |  |  |  |  |
| C[C@H]1CN(C(=O)c2cn3nc(-c4ccc(F)cc4)cc(C4CC4)c3n2)CCN1C(=O)[C@H](O)CC(C)(C)C [Compound I-14, (2R)-1-[(2S)-4-[8-Cylopropyl-6-(4-fluorophenyl)imidazo[1,2-b]pyridazine-2-carbonyl]-2-methyl-piperazin-1-yl]-2-hydroxy-4,4-dimethyl-pentan-1-one] | > 5000 | 0.5 | > 5000 | 0.8 |  |  |  |  |
| CC(C)c1cc(Cl)nn2cc(C(=O)N3CCN(C(=O)OC(C)(C)C)CC3(C)C)nc12 [Compound I-18, tert-Butyl 4-(6-chloro-8-isopropyl-imidazo[1,2-b]pyridazine-2-carbonyl)-3,3-dimethyl-piperazine-1-carboxylate] | 20000 | 2800 | 18000 | 6800 |  |  |  |  |
| CC(C)(O)C(=O)N1CCN(C(=O)c2cn3nc(-c4ccc(F)cc4)cc(C4CC4)c3n2)C(C)(C)C1 [Compound I-20, 1-[4-[8-cyclopropyl-6-(4-fluorophenyl)imidazo[1,2-b]pyridazine-2-carbonyl]-3,3-dimethyl-piperazin-1-yl]-2-hydroxy-2-methyl-propan-1-one] | 3600 | 280 | 3000 | 1020 |  |  |  |  |
| C[C@H]1CN(C(=O)c2cn3nc(-c4ccc(F)cc4)cc(C(F)(F)F)c3n2)CCN1C(=O)c1cc(-c2ccccc2)n[nH]1 [Compound I-87] | > 50000 | 21 | > 50000 |  |  |  |  |  |
| C[C@H]1CN(C(=O)c2cn3nc(-c4ccc(F)cc4)cc(C(F)(F)F)c3n2)CCN1C(=O)c1ncc[nH]1 [Compound I-88] | > 50000 | 680 | > 50000 |  |  |  |  |  |
| Cc1cc(F)ccc1-c1cc(C(C)C)c2nc(C(=O)N3CCNC(=O)C3(C)C)cn2n1 [Compound I-478] |  |  |  |  | > 1000 | 790 | > 1000 |  |

Now from value to molecule, other results behind:

| IC50 [1] [nM] | IC50 [2] [nM] | IC50 [3] [nM] | IC50 [4] [nM] | IC50 ([1]; antagonist mode) [nM] | IC50 ([2]; antagonist mode) [nM] | IC50 ([3]; antagonist mode) [nM] | SMILES | Thrombin % @ concentration ([1]; @ 50 (μM)) [% @ 50] |
| --- | --- | --- | --- | --- | --- | --- | --- | --- |
| 6100 | 860 | 4700 | 2400 |  |  |  | Cc1cc(-c2ccc(F)cc2)nn2cc(C(=O)N3CCN(C(=O)OC(C)(C)C)[C@@H](C)C3)nc12 [Compound I-2, tert-Butyl (2S)-4-[6-(4-fluorophenyl)-8-methyl-imidazo[1,2-b]pyridazine-2-carbonyl]-2-methyl-piperazine-1-carboxylate] |  |
| 10000 | 1280 | 11000 | 2500 |  |  |  | Cc1cc(-c2ccc(F)cc2)nn2cc(C(=O)N3CCCCCC3)nc12 [Compound I-6, Azepan-1-yl-[6-(4-fluorophenyl)-8-methyl-imidazo[1,2-b]pyridazin-2-yl]methanone] |  |
| 16000 | 430 | 18000 | 1100 |  |  |  | COC(=O)[C@@H]1CCN(C(=O)c2cn3nc(-c4ccc(F)cc4)cc(C)c3n2)C[C@@H]1C [Compound I-10, (3R,4R)-Methyl 1-(6-(4-fluorophenyl)-8-methylimidazo[1,2-b]pyridazine-2-carbonyl)-3-methylpiperidine-4-carboxylate] |  |
| 7700 | 84 | 9200 | 490 |  |  |  | C[C@H]1CN(C(=O)c2cn3nc(-c4ccc(F)cc4)cc(C(F)(F)F)c3n2)CCN1C(=O)OCc1cccnc1 [Compound I-12, 3-Pyridylmethyl (2S)-4-[6-(4-fluorophenyl)-8-(trifluoromethyl)-imidazo-[1,2-b]pyridazine-2-carbonyl]-2-methyl-piperazine-1-carboxylate] |  |
| 13000 | 480 | 13000 | 2400 |  |  |  | C[C@H]1CN(C(=O)c2cn3nc(-c4ccc(F)cc4)ccc3n2)CCN1C(=O)[C@H](O)CC(C)(C)C [Compound I-13, (2R)-1-[(2S)-4-[6-(4-Fluorophenyl)imidazo[1,2-b]pyridazine-2-carbonyl]-2-methyl-piperazin-1-yl]-2-hydroxy-4,4-dimethyl-pentan-1-one] |  |
| > 50000 | 47 | > 50000 | 58 |  |  |  | C[C@H]1CN(C(=O)c2cn3nc(-c4ccc(F)cc4)cc(C(F)(F)F)c3n2)CCN1C(=O)[C@@H](CC1CCCCC1)NC(=O)OC(C)(C)C [Compound I-15, tert-Butyl N-[(1R)-1-(cyclohexylmethyl)-2-[(2S)-4-[6-(4-fluorophenyl)-8-(trifluoromethyl)imidazo[1,2-b]pyridazine-2-carbonyl]-2-methyl-piperazin-1-yl]-2-oxo-ethyl]carbamate] |  |
| 11000 | 37 | 11000 | 280 |  |  |  | C[C@H]1CN(C(=O)c2cn3nc(-c4ccc(F)cc4)cc(C(F)(F)F)c3n2)CCN1C(=O)[C@H](N)CC1CCCCC1 [Compound I-16, (2R)-2-amino-3-cyclohexyl-1-[(2S)-4-[6-(4-fluorophenyl)-8-(trifluoromethyl)imidazo[1,2-b]pyridazine-2-carbonyl]-2-methyl-piperazin-1-yl]propan-1-one] |  |
| 20000 | 41 | 19000 | 780 |  |  |  | C=CC(=O)N1CCN(C(=O)c2cn3nc(-c4ccc(F)cc4)cc(C(C)C)c3n2)C[C@@H]1C [Compound I-17, 1-[(2S)-4-[6-(4-Fluorophenyl)-8-isopropyl-imidazo[1,2-b]pyridazine-2-carbonyl]-2-methyl-piperazin-1-yl]prop-2-en-1-one] |  |
|  | 25 | 50000 | 56 |  |  |  | CC(C)c1cc(-c2ccc(F)cc2)nn2cc(C(=O)N3CCN(C(=O)C4(O)CCC4)CC3(C)C)nc12 [Compound I-19, [6-(4-Fluorophenyl)-8-isopropyl-imidazo[1,2-b]pyridazin-2-yl]-[4-(1-hydroxycyclobutanecarbonyl)-2,2-dimethyl-piperazin-1-yl]methanone] | 62 |
| > 50000 | 19 | 64000 | 29 |  |  |  | CC1(C)CN(C(=O)C2(O)CCC2)CCN1C(=O)c1cn2nc(-c3ccc(F)cc3)cc(C3CC3)c2n1 [Compound I-21, [8-cyclopropyl-6-(4-fluorophenyl)imidazo[1,2-b]pyridazin-2-yl]-[4-(1-hydroxycyclobutanecarbonyl)-2,2-dimethyl-piperazin-1-yl]methanone] |  |
